Counter-ions that a name gives are not always drawn.

For one assay, the target named is rat TAAR1 (Rattus norvegicus (Rat), UniProt Q923Y9). Description: Radioligand binding assay on rat TAAR1.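 On all read-outs here: stably transfected HEK293 cell membranes with a tritiated radioligand, 1 h incubation at 4 °C, nonspecific binding taken as binding with 10 µM unlabeled ligand.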 Particulars: for Ki: read-out: Ki (μM) rat, rat TAAR1, membranes of HEK-293 cells, radioligand displacement.
A further assay addresses mouse TAAR1 (Mus musculus (Mouse), UniProt Q923Y8). Nature of the assay: Radioligand binding assay on mouse TAAR1. Particulars: for Ki: read-out: Ki (μM) mouse, mouse TAAR1, membranes of HEK-293 cells, radioligand displacement.

Sequence of mouse TAAR1 (Q923Y8 whole entry): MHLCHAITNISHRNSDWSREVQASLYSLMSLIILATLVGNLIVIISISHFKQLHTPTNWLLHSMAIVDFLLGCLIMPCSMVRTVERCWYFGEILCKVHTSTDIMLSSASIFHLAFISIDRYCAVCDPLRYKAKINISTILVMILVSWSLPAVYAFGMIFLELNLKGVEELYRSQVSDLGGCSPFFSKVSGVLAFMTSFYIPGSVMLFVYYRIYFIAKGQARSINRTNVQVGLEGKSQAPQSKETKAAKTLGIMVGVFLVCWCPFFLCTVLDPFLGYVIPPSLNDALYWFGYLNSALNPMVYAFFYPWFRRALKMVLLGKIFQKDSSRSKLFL
Sequence of rat TAAR1 (Q923Y9 whole entry): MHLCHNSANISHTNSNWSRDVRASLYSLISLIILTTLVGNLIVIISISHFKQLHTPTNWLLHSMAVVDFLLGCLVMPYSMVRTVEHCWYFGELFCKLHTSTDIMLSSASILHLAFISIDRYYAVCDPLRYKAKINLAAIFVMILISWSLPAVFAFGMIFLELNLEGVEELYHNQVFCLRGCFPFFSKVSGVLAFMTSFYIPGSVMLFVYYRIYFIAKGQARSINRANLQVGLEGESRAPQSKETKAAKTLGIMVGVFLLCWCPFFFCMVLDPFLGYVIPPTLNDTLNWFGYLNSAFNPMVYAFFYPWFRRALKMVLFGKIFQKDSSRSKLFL
Description for mouse TAAR1: (§1) For the generation of stably transfected cell lines HEK293 cells were transfected with the pIRESneo2 expression plasmids containing the TAAR coding sequences (described above) with Lipofectamine 2000 (Invitrogen) according to the instructions of the manufacturer, and 24 hrs post transfection the culture medium was supplemented with 1 mg/ml G418 (Sigma, Buchs, Switzerland). […] Radioligand Binding Assay on Rat TAAR1 Membrane Preparation and Radioligand Binding. […] Cells were released from culture flasks using trypsin/EDTA, harvested, washed twice with ice-cold PBS (without Ca^2+ and Mg^2+), pelleted at 1,000 rpm for 5 min at 4° C., frozen and stored at −80° C. Frozen pellets were suspended in 20 ml HEPES-NaOH (20 mM, pH 7.4) containing 10 mM EDTA and homogenized with a Polytron (PT 6000, Kinematica) at 14,000 rpm for 20 s. The homogenate was centrifuged at 48,000×g for 30 min at 4° C. Subsequently, the supernatant was removed and discarded, and the pellet resuspended in 20 ml HEPES-NaOH (20 mM, pH 7.4) containing 0.1 mM EDTA using the Polytron (20 s at 14,000 rpm). This procedure was repeated and the final pellet resuspended in HEPES-NaOH containing 0.1 mM EDTA and homogenized using the Polytron. Typically, aliquots of 2 ml membrane portions were stored at −80° C. With each new membrane batch the dissociation constant (Kd) was determined via a saturation curve. […] Nonspecific binding was defined as the amount of ^3[H]-(S)-4-[(ethyl-phenyl-amino)-methyl]-4,5-dihydro-oxazol-2-ylamine bound in the presence of 10 μM unlabeled ligand. All compounds were tested at a broad range of concentrations (10 pM to 10 μM) in duplicates. […] The 96 deep well plates were incubated for 1 hr at 4° C. Incubations were terminated by rapid filtration through Unifilter-96 plates (Packard Instrument Company) and glass filters GF/C (Perkin Elmer) presoaked for 1 hr in polyethylenimine (0.3%) and washed 3 times with 1 ml of cold binding buffer. After addition of 45 μl of Microscint 40 (PerkinElmer) the Unifilter-96 plate was sealed and after 1 hr the radioactivity counted using a TopCount Microplate Scintillation Counter (Packard Instrument Company). Radioligand Binding Assay on Mouse TAAR1 Membrane Preparation and Radioligand Binding. […] Cells were released from culture flasks using trypsin/EDTA, harvested, washed twice with ice-cold PBS (without Ca^2+ and Mg^2+), pelleted at 1,000 rpm for 5 min at 4° C., frozen and stored at −80° C. Frozen pellets were suspended in 20 ml HEPES-NaOH (20 mM, pH 7.4) containing 10 mM EDTA and homogenized with a Polytron (PT 6000, Kinematica) at 14,000 rpm for 20 s. The homogenate was centrifuged at 48,000×g for 30 min at 4° C. Subsequently, the supernatant was removed and discarded, and the pellet resuspended in 20 ml HEPES-NaOH (20 mM, pH 7.4) containing 0.1 mM EDTA using the Polytron (20 s at 14,000 rpm). This procedure was repeated and the final pellet resuspended in HEPES-NaOH containing 0.1 mM EDTA and homogenized using the Polytron. Typically, aliquots of 2 ml membrane portions were stored at −80° C. With each new membrane batch the dissociation constant (Kd) was determined via a saturation curve.
Description for rat TAAR1: as §1

Turning to `O=C(Nc1ccc([C@H]2CNCCO2)cc1)c1cnn(-c2ncc(Cl)cn2)c1` [Example 30, (S)-1-(5-chloropyrimidin-2-yl)-N-(4-(morpholin-2-yl)phenyl)-1H-pyrazole-4-carboxamide hydrochloride], the values for the inhibition constant (Ki) on rat TAAR1 and on mouse TAAR1 were 0.135 µM and 0.0166 µM, respectively.

For `Cc1c(C(=O)Nc2ccc([C@H]3CNCCO3)cc2)cnn1-c1ccc(OC(F)F)cc1` [Example 31, (S)-1-(4-(difluoromethoxy)phenyl)-5-methyl-N-(4-(morpholin-2-yl)phenyl)-1H-pyrazole-4-carboxamide hydrochloride], the Ki worked out at 0.045 µM on rat TAAR1 and 0.0013 µM at mouse TAAR1.

As for `Cc1nn(-c2ccc(OC(F)F)cc2)cc1C(=O)Nc1ccc([C@H]2CNCCO2)cc1` [Example 32, (S)-1-(4-(difluoromethoxy)phenyl)-3-methyl-N-(4-(morpholin-2-yl)phenyl)-1H-pyrazole-4-carboxamide hydrochloride], the Ki at rat TAAR1 is 0.0002 µM; on mouse TAAR1 it was 0.0008 µM.

In the case of `O=C(Nc1ccc([C@H]2CNCCO2)cc1)c1cnn(-c2cncc(Cl)n2)c1` [Example 33, (S)-1-(6-chloropyrazin-2-yl)-N-(4-(morpholin-2-yl)phenyl)-1H-pyrazole-4-carboxamide hydrochloride], the Ki on rat TAAR1 turned out to be 0.0068 µM; on mouse TAAR1, 0.0032 µM.

Consider `O=C(Nc1ccc([C@H]2CNCCO2)cc1)c1cnn(-c2ccnc(C(F)(F)F)n2)c1` [Example 34, (S)—N-(4-(morpholin-2-yl)phenyl)-1-(2-(trifluoromethyl)pyrimidin-4-yl)-1H-pyrazole-4-carboxamide hydrochloride], for which the Ki on rat TAAR1 came to 0.0035 µM; on mouse TAAR1, 0.0054 µM.

Regarding `Cc1c(C(=O)Nc2ccc([C@H]3CNCCO3)cc2)cnn1-c1ccc(C#N)cc1` [Example 35, (S)-1-(4-cyanophenyl)-5-methyl-N-(4-(morpholin-2-yl)phenyl)-1H-pyrazole-4-carboxamide hydrochloride], the Ki turned out to be 0.167 µM on rat TAAR1 and 0.0601 µM at mouse TAAR1.

On to `O=C(Nc1ccc([C@H]2CNCCO2)cc1)c1cnn(-c2ccnc(Cl)n2)c1` [Example 36, (S)-1-(2-chloropyrimidin-4-yl)-N-(4-(morpholin-2-yl)phenyl)-1H-pyrazole-4-carboxamide hydrochloride], for which the Ki stood at 0.0054 µM at rat TAAR1 and 0.0086 µM on mouse TAAR1.

As to `O=C(Nc1ccc([C@H]2CNCCO2)cc1)c1cnn(-c2ncc(C(F)(F)F)cn2)c1` [Example 37, (S)—N-(4-(morpholin-2-yl)phenyl)-1-(5-(trifluoromethyl)pyrimidin-2-yl)-1H-pyrazole-4-carboxamide hydrochloride], the Ki on rat TAAR1 came out at 0.0931 µM; at mouse TAAR1 it was 0.0615 µM.

On to `O=C(Nc1ccc([C@H]2CNCCO2)cc1)c1cnn(-c2cncc(C(F)(F)F)n2)c1` [Example 38, (S)—N-(4-(morpholin-2-yl)phenyl)-1-(6-(trifluoromethyl)pyrazin-2-yl)-1H-pyrazole-4-carboxamide hydrochloride], for which the Ki was found to be 0.0059 µM at rat TAAR1 and 0.0075 µM at mouse TAAR1.

Regarding `Cc1cncc(-n2cc(C(=O)Nc3ccc([C@H]4CNCCO4)cc3)cn2)n1` [Example 39, (S)-1-(6-methylpyrazin-2-yl)-N-(4-(morpholin-2-yl)phenyl)-1H-pyrazole-4-carboxamide hydrochloride], the Ki at rat TAAR1 was determined as 0.0435 µM; at mouse TAAR1, 0.0088 µM.

For `Cc1cnc(-n2cc(C(=O)Nc3ccc([C@H]4CNCCO4)cc3)cn2)cn1` [Example 40, (S)-1-(5-methylpyrazin-2-yl)-N-(4-(morpholin-2-yl)phenyl)-1H-pyrazole-4-carboxamide hydrochloride], the results for the Ki at rat TAAR1 and at mouse TAAR1 were 0.126 µM and 0.0119 µM, respectively.

For `O=C(Nc1ccc([C@H]2CNCCO2)cc1)c1cnn(-c2nccnc2Cl)c1` [Example 41, (S)-1-(3-chloropyrazin-2-yl)-N-(4-(morpholin-2-yl)phenyl)-1H-pyrazole-4-carboxamide hydrochloride], the inhibitory constant (Ki) was 0.0814 µM on rat TAAR1 and 0.0275 µM at mouse TAAR1.

Regarding `N#Cc1cnc(-n2cc(C(=O)Nc3ccc([C@H]4CNCCO4)cc3)cn2)cn1` [Example 42, (S)-1-(5-cyanopyrazin-2-yl)-N-(4-(morpholin-2-yl)phenyl)-1H-pyrazole-4-carboxamide hydrochloride], the Ki on rat TAAR1 amounted to 0.0326 µM; at mouse TAAR1, 0.0199 µM.

As for `Cc1ccnc(-n2cc(C(=O)Nc3ccc([C@H]4CNCCO4)cc3)cn2)n1` [Example 43, (S)-1-(4-methylpyrimidin-2-yl)-N-(4-(morpholin-2-yl)phenyl)-1H-pyrazole-4-carboxamide hydrochloride], the results for the Ki on rat TAAR1 and at mouse TAAR1 were 0.315 µM and 0.0554 µM, respectively.

Take `O=C(Nc1ccc([C@H]2CNCCO2)cc1)c1cnn(-c2cc(C(F)(F)F)ncn2)c1` [Example 44, (S)—N-(4-(morpholin-2-yl)phenyl)-1-(6-(trifluoromethyl)pyrimidin-4-yl)-1H-pyrazole-4-carboxamide hydrochloride]: the figures for the Ki on rat TAAR1 and on mouse TAAR1 were 0.0041 µM and 0.0099 µM, respectively.

Regarding `O=C(Nc1ccc([C@H]2CNCCO2)cc1)c1cnn(-c2cnc(C(F)(F)F)nc2)c1` [Example 45, (S)—N-(4-(morpholin-2-yl)phenyl)-1-(2-(trifluoromethyl)pyrimidin-5-yl)-1H-pyrazole-4-carboxamide hydrochloride], the Ki on rat TAAR1 stood at 0.0059 µM; at mouse TAAR1 it was 0.0214 µM.

`O=C(Nc1ccc([C@H]2CNCCO2)cc1)c1cnn(-c2cnc(Cl)cn2)c1` [Example 46, (S)-1-(5-chloropyrazin-2-yl)-N-(4-(morpholin-2-yl)phenyl)-1H-pyrazole-4-carboxamide hydrochloride]: the Ki came to 0.0056 µM on rat TAAR1 and 0.0031 µM on mouse TAAR1.

As for `N#Cc1cncc(-n2cc(C(=O)Nc3ccc([C@H]4CNCCO4)cc3)cn2)n1` [Example 47, (S)-1-(6-cyanopyrazin-2-yl)-N-(4-(morpholin-2-yl)phenyl)-1H-pyrazole-4-carboxamide hydrochloride], the Ki on rat TAAR1 stood at 0.0345 µM; at mouse TAAR1, 0.0195 µM.

Consider `O=C(Nc1ccc([C@H]2CNCCO2)cc1)c1cnn(-c2nccc(C(F)(F)F)n2)c1` [Example 48, (S)—N-(4-(morpholin-2-yl)phenyl)-1-(4-(trifluoromethyl)pyrimidin-2-yl)-1H-pyrazole-4-carboxamide hydrochloride], for which the results for the Ki at rat TAAR1 and at mouse TAAR1 were 0.149 µM and 0.0531 µM, respectively.

For the compound `N#Cc1ccc(-n2cc(C(=O)Nc3ccc([C@@H]4CNCCO4)cc3)cn2)c(F)c1` [Example 49, (R)-1-(4-cyano-2-fluorophenyl)-N-(4-(morpholin-2-yl)phenyl)-1H-pyrazole-4-carboxamide hydrochloride], the Ki is 0.0033 µM at rat TAAR1 and 0.0049 µM at mouse TAAR1.

As for `O=C(Nc1ccc([C@H]2CNCCO2)cc1)c1cnn(-c2ccnc(C(F)(F)F)c2)c1` [Example 50, (S)—N-(4-(morpholin-2-yl)phenyl)-1-(2-(trifluoromethyl)pyridin-4-yl)-1H-pyrazole-4-carboxamide hydrochloride], the Ki on rat TAAR1 is 0.0038 µM; on mouse TAAR1 it was 0.0077 µM.

As to `O=C(Nc1ccc([C@H]2CNCCO2)cc1)c1cnn(-c2ccc(C(F)(F)F)nc2)c1` [Example 51, (S)—N-(4-(morpholin-2-yl)phenyl)-1-(6-(trifluoromethyl)pyridin-3-yl)-1H-pyrazole-4-carboxamide hydrochloride], the Ki on rat TAAR1 is 0.0048 µM; on mouse TAAR1, 0.0064 µM.

`N#Cc1nccnc1-n1cc(C(=O)Nc2ccc([C@H]3CNCCO3)cc2)cn1` [Example 52, (S)-1-(3-cyanopyrazin-2-yl)-N-(4-(morpholin-2-yl)phenyl)-1H-pyrazole-4-carboxamide hydrochloride]: the figures for the Ki on rat TAAR1 and at mouse TAAR1 were 0.0451 µM and 0.0179 µM, respectively.

Regarding `O=C(Nc1ccc([C@H]2CNCCO2)cc1)c1cnn(-c2cc(C3CC3)ncn2)c1` [Example 56, (S)-1-(6-cyclopropylpyrimidin-4-yl)-N-(4-(morpholin-2-yl)phenyl)-1H-pyrazole-4-carboxamide hydrochloride], the Ki on rat TAAR1 was 0.0052 µM; at mouse TAAR1 it was 0.0051 µM.

Turning to `O=C(Nc1ccc([C@H]2CNCCO2)cc1)c1cnn(-c2nc(C(F)(F)F)cs2)c1` [Example 57, (S)—N-(4-(morpholin-2-yl)phenyl)-1-(4-(trifluoromethyl)thiazol-2-yl)-1H-pyrazole-4-carboxamide hydrochloride], the Ki at rat TAAR1 amounted to 0.0011 µM; at mouse TAAR1, 0.0019 µM.

For the compound `CCN(C[C@H]1COC(N)=N1)c1ccccc1` [reference compound], the Kd on rat TAAR1 (read-out: dissociation constant (Kd) of the radioligand, rat TAAR1 membranes, saturation curve) was about 2.3 nM; on mouse TAAR1 (read-out: dissociation constant (Kd) of the radioligand, mouse TAAR1 membranes, saturation curve), about 0.7 nM.

(Values after patent publication US9487501B2, “Pyrazole carboxamide compounds and uses thereof” (Hoffmann-La Roche Inc., priority 2012, dated 2016).)
